The test system of the test is MC3T3-E1 cells. Kind of test: ECM screen: adhesion of MC3T3-E1 osteoblast cells to immobilized adhesion ligands (nuclei count). The class given is cell-based. To be noted: best factors approach. From the text: A statistical design was developed with special consideration of the surface chemistry requirements. In particular, in this experiment the scenario shown in FIG. 6 was used, wherein the overall adhesion ligand density was kept constant from well to well and only the adhesion ligand composition was allowed to change. In other words, the concentration of a single adhesion ligand could be different from well to well, but each well has the same amount of adhesion ligand immobilized overall. This scenario is further described above. An example of such design is shown in the spreadsheet in FIG. 7. The top row in FIG. 7 lists the 10 cell adhesion ligands used in this particular screen. The first column is a list of the experimental points that translate into a well in the 96-well plate, e.g., 52 wells in this case. The numbers in the spreadsheet are the actual volumes (in µL) of factor that is added to a particular well. In this particular design, factors get added to the wells at three volumes, e.g., 5 µL, 25 µL, or 50. mu.L. The total well volume in this case is 50 µL. Thus, for wells where one factor is added at 50 µL, the final well composition will comprise a single adhesion ligand covalently immobilized on the well surface. Accordingly, if 25 µL of a factor is added to a well, a second factor is added at 25 µL also, and the final well composition will comprise a mixture of two different cell adhesion ligands covalently immobilized on the well surface. When 5 µL of a factor are added, nine other factors are added at 5 µL each, as well, thus resulting in wells that comprise a mixture of all 10 cell adhesion ligands on the well surface. These experimental points containing all 10 adhesion ligands are called “mid points” and are an integral part of the statistical design in this example.
With reference now to FIG. 8, a 96-well plate layout is shown, which was translated from the particular statistical design shown in FIG. 7. In particular, the 96-well plate includes the well compositions indicated in FIG. 7, e.g., cell adhesion ligand combinations immobilized at the bottom of each well. In particular, the experimental runs in FIG. 7 correspond to rows/columns in FIG. 8, as follows: runs 1-10 in the design in FIG. 7 represent row B, columns 2-11, respectively on the plate layout in FIG. 8; runs 11-20 represent row C, columns 2-11; runs 21-30 represent row D, columns 2-11; runs 31-40 represent row E, columns 2-11; runs 41-50 represent row F, columns 2-11 and runs 51 and 52 represent row G, columns 2 and 3, respectively. As shown by the statistical design in FIG. 7 and the corresponding 96-well plate layout in FIG. 8, it is an embodiment of the present invention that, in addition to mixtures of agents, single agents can be placed in the receptacles. […]

For laminin, the “Effect on cell count, mixture-model analysis (Ln(cell count-10% serum+1) vs. deviation from reference blend, FIG. 12)” value was “positive effect” and the “Effect on cell count, mixture-model analysis (Ln(cell count-no serum+1) vs. deviation from reference blend, FIG. 11)” value is listed as “increase the cell count”.
The corresponding values for poly-L-lysine are “diminishes” and “marginal effect”.
